# US20250346581A1, “PROCESS FOR SYNTHESIS OF GALBULIMIMA ALKALOID 18 AND COMPOUNDS USEFUL AS OPIOID RECEPTOR ANTAGONISTS AND AGONISTS” (The Scripps Research Institute, priority 2022, published 2025)
# Entries after “also recorded” stand apart in the source; their conditions may differ. Like-named read-outs stand apart in the source and are kept apart here. Marks after values point to notes of the source that are not given here.
# Tests used:
# [1] = molecular target: T1, KOR (Homo sapiens, UniProt P41145); experiment: KOR cAMP inhibition screening, antagonist mode vs. 100 nM U69,593; details: Antagonist vs. 100 nM U69,593 IC50 (nM)
# T1 sequence (P41145 whole entry): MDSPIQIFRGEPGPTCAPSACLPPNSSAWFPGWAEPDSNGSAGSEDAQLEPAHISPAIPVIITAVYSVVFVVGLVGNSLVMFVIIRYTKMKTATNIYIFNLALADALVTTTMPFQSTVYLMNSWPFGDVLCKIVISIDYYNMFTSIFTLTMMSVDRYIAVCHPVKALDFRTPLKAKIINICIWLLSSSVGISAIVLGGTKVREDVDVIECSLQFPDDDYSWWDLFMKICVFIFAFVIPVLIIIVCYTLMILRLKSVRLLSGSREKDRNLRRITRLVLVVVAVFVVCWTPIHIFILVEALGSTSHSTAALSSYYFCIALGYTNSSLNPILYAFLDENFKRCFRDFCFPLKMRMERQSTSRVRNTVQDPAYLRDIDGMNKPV
# [2] = molecular target: T1, KOR; experiment: KOR cAMP inhibition screening, agonist mode
# [3] = molecular target: T2, kappa-opioid receptors (KOR) (Homo sapiens, UniProt P41145); experiment: NIMH PDSP radioligand displacement, [3H]U-69593; type: binding; details: for displacement of [3H]U-69593 from KOR: 10 μM
# T2 construct: NIMH Psychoactive Drug Screening Program (screening service)
# T2 sequence (P41145 whole entry): as above
# [4] = molecular target: T3, mu-opioid receptors (MOR) (Homo sapiens, UniProt P35372); experiment: NIMH PDSP radioligand displacement, [3H]DAMGO; type: binding; details: 10 μM
# T3 construct: NIMH Psychoactive Drug Screening Program (screening service)
# T3 sequence (P35372 whole entry): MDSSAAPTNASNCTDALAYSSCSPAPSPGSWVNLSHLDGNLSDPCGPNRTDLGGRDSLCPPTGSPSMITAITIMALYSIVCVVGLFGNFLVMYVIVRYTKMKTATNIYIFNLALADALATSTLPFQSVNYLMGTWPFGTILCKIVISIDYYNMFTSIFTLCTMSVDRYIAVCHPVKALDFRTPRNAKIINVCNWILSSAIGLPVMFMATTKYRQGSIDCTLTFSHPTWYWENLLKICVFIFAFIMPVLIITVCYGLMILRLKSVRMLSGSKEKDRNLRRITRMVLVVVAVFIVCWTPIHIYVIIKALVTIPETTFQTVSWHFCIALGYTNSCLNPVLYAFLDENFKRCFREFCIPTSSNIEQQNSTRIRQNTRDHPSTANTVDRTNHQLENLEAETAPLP
# [5] = test system: >40 common drug targets; experiment: NIMH PDSP binding screen of common drug targets; details: 10 μM
# [6] = molecular target: T1, KOR; experiment: TANGO assay KOR; type: cell-based
# [7] = molecular target: MOR (Homo sapiens, UniProt P35372); experiment: TANGO assay MOR; type: cell-based
# MOR, sequence (P35372 whole entry): as above
# [8] = molecular target: delta-opioid receptors (Homo sapiens, UniProt P41143); experiment: Follow-up assay delta-opioid receptor; type: cell-based
# delta-opioid receptors, sequence (P41143 whole entry): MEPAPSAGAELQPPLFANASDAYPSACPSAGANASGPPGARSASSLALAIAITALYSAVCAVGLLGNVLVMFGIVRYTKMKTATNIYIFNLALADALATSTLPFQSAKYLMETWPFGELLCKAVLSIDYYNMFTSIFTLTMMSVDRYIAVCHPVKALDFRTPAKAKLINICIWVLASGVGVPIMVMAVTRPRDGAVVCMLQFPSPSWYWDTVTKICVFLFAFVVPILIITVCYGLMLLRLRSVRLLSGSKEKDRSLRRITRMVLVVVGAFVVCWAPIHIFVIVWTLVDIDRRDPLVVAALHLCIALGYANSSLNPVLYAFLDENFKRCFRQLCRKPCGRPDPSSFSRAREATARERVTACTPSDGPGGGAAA
# [9] = molecular target: nociceptin opioid receptors (Homo sapiens, UniProt P41146); experiment: Follow-up assay nociceptin opioid receptor; type: cell-based
# nociceptin opioid receptors, sequence (P41146 whole entry): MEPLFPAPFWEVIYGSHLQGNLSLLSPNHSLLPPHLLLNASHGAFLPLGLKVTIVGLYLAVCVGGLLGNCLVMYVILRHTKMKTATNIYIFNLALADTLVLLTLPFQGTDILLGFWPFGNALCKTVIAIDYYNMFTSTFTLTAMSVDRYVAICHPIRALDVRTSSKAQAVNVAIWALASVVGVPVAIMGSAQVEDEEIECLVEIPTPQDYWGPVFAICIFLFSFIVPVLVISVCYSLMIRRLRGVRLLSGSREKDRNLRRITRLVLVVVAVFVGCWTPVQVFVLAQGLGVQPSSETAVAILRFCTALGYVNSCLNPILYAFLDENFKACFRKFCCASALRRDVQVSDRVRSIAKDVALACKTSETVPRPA
# [10] = test system: Mas-related GPCRs; experiment: Follow-up assay Mas-related GPCRs; type: cell-based
# [11] = test system: M1-5; experiment: Muscarinic receptor binding (FIG. 3)
# Description: Thus, the topology changes that differentiate the two subclasses also differentiate target selectivity.
# [12] = test system: mouse; details: 5 mg/kg; cited from earlier work
# [13] = test system: mouse; details: 5 mg/kg; cited from earlier work; remark: listed apart in the source
# [14] = test system: cats; details: 2.5 mg/kg, i.v. administration; cited from earlier work
# [15] = test system: rabbit intestine; details: 0.1 mg/L, furmethide-induced spasm; cited from earlier work
# [16] = molecular target: T1, KOR
# [17] = test system: mammals; details: cited from earlier work
# [18] = test system: mammals; details: in vivo; cited from earlier work
# [19] = read-out: Agonist Emax (% U69,593)
# [20] = read-out: Agonist Emax (% U69,593), KOR cAMP, agonist mode
compound,measurement,setting,value
CC1CCCC(C2CC3C4CCCCC45C=C(I)C4C2(C)OC345)N1C (stereo not drawn),IC50,[1],830 nM
C#CCOC(=O)C1=CC23CCCCC2C2CC(C4CCCC(C)N4)C4(C)OC23C14 (stereo not drawn),Emax,[2]; [19],5%
same,IC50,[1],556 nM
CCOC(=O)C1=CC23CCCCC2C2CC(C4CCCC(C)N4C)C4(C)OC23C14 (stereo not drawn),Emax,[2]; [19],15%
same,IC50,[1],3390 nM
CC1CCCC(C2CC3C4CCCCC45C=C(C#N)C4C2(C)OC345)N1C (stereo not drawn),Emax,[2]; [20],8%
CC1CCCC([C@H]2C[C@H]3C4CCCCC45C=C(I)[C@H]4C2(C)OC345)N1C (stereo partly drawn),IC50,[1],1400 nM
C=CCN1C(C)CCCC1C1CC2C3CCCCC34C=C(C(=O)OC)C3C1(C)OC234 (stereo not drawn),Emax,[2]; [20],2%
COC(=O)C1=CC23CCCCC2C2CC(C4CCCC(C)N4C(C)=O)C4(C)OC23C14 (stereo not drawn),Emax,[2]; [19],10%
same,IC50,[1],> 10000 nM
CC1CCCC(C2CC3C4CCCCC45C=C(CO)C4C2(C)OC345)N1C (stereo not drawn),Emax,[2]; [19],12%
same,IC50,[1],116 nM
COCC1=CC23CCCCC2C2CC(C4CCCC(C)N4C)C4(C)OC23C14 (stereo not drawn),Emax,[2]; [19],14%
same,IC50,[1],3220 nM
CC(=O)C1=CC23CCCCC2C2CC(C4CCCC(C)N4C)C4(C)OC23C14 (stereo not drawn),Emax,[2]; [20],12%
COCC(=O)C1=CC23CCCCC2C2CC(C4CCCC(C)N4C)C4(C)OC23C14 (stereo not drawn),Emax,[2]; [20],10%
CC1CCCC(C2CC3C4CCCCC45C=C(C4=NCCO4)C4C2(C)OC345)N1C (stereo not drawn),Emax,[2]; [20],4%
COC1CC23CCCCC2C2CC(c4cccc(C)n4)C4(C)OC23C14 (stereo not drawn),Emax,[2]; [20],5%
COC(=O)C1=CC23CCCCC2[C@@H]2C[C@H](c4cccc(C)c4)C4(C)OC23[C@@H]14 (stereo partly drawn),"Agonist Emax (% U69,593)",[2],"60* % U69,593"
same,EC50,[2],1050 nM
COC(=O)C1=CC23CCCCC2[C@@H]2C[C@H](c4cccnc4)C4(C)OC23[C@@H]14 (stereo partly drawn),Emax,[2]; [19],19%
same,IC50,[1],> 10000 nM
"COC(=O)C1=CC23CCCCC2[C@H]2C[C@@H](C4CCCC(C)N4)C(C)(O3)[C@@H]12 (single isomer, unassigned) [ent-GB18]",displacement of [3H]U-69593 from KOR,[3],56%
same,Ki,[3]; [3H]U-69593 displacement,1100 nM
"COC(=O)C1=CC23CCCCC2[C@@H]2C[C@H](C4CCCC(C)N4)C(C)(O3)[C@H]12 (single isomer, unassigned) [nat-GB18]",displacement of [3H]U-69593 from KOR,[3],87%
same,displacement of [3H]DAMGO from MOR,[4],85%
same,binding to >40 common drug targets,[5],low or statistically-insignificant
same,IC50,"[6]; TANGO, antagonist",10 nM
same,IC50,"[7]; TANGO, antagonist",12 nM
same,ligation of delta-opioid receptors,[8],not strongly ligated
same,ligation of nociceptin opioid receptors,[9],not strongly ligated
same,ligation of Mas-related GPCRs,[10],not strongly ligated
"COC(=O)C1=C[C@@]23CCCC[C@H]2[C@@H]2C[C@H]([C@H]4CCC[C@@H](C)N4)C(C)(O3)[C@H]12 [GB18, methyl (2R,3aS,5aR,9aS,9bS)-3-methyl-2-((2R,6R)-6-methylpiperidin-2-yl)-1,2,3,3a,6,7,8,9,9a,9b-decahydro-3,5a-epoxycyclopenta[a]naphthalene-4-carboxylate]",antagonism of KOR,[6]; FIG. 3,high potency
same,antagonism of MOR,[7]; FIG. 3,high potency
same,binding to M1-5,[11],does not bind
same,inhibition of mouse preening,[12],inhibition of preening; also recorded: inhibited mouse preening
same,effect on pain threshold,[13],without effect; also recorded: no effect
COC(=O)C1=C2C3(O)CC4CC5C3CCC(C)N5C24C2CCCC(OC)C2C1OC(=O)c1ccccc1 (stereo not drawn) [Himandrine],heart rate,[14],reduced heart rate
same,hypotension,[14],marked and sustained hypotension
C[C@@H]1CC[C@H]2[C@H](C[C@@H]3C[C@@]2(O)C2=CC(=O)[C@H]4CCCC[C@@H]4[C@H]23)N1C [Himbadine],antispasmodic activity,[15],significant antispasmodic activity
COC(=O)C1CC23CCCCC2C2CC(C4CCCC(C)N4)C4(C)OC23C14 (stereo not drawn) [drawing 153],Emax,[2]; [20],13%
same,IC50,[1],5000 nM
COC(=O)C1CC23CCCCC2C2CC(C4CCCC(C)N4)C4(C)OC23C14 (stereo not drawn) [drawing 154],"Agonist Emax (% U69,593)",[16],"10* % U69,593"
same,IC50,[1],> 10000 nM
COC1CC23CCCCC2C2CC(C4CCCC(C)N4)C4(C)OC23C14 (stereo not drawn) [drawing 167],"Agonist Emax (% U69,593)",[2],"10* % U69,593"
same,IC50,[1],6250 nM
COC1CC23CCCCC2C2CC(C4CCCC(C)N4)C4(C)OC23C14 (stereo not drawn) [drawing 168],Emax,[2]; [19],17%
COC(=O)C1=C2C3(O)CC4CC5C3CCC(C)N5C24C2CCC(O)C(OC)C2C1OC(=O)c1ccccc1 (stereo not drawn) [himandridine],hypotensive activity,[17]; 2.5 mg/kg,moderate to marked hypotensive activity
CC1CCCC(C=CC2C3CCCCC3CC3C(=O)OC(C)C32)N1 (stereo not drawn) [himbeline],depressant and hypotensive activity,[17]; no dose listed,weakly depressant and hypotensive
himandravine,CNS depression,[18],strong CNS depression
same,anticonvulsant activity against electroshock seizure,[18],anticonvulsant activity
